The source of these data is patent US20230357179A1, “RAF KINASE INHIBITORS AND METHODS OF USE THEREOF” (Deciphera Pharmaceuticals, LLC, priority 2021, published 2023).

The target of assay [1] is T1, C-Raf kinase (Homo sapiens, UniProt P04049, Y340D/Y341D).
T1 construct: Y340D,; GST (N); purchased Sigma
The assay is described as follows: Biochemical assay for C-Raf.1 (coupled pyruvate kinase/lactate dehydrogenase). As to conditions: read-out: CRAF.1 IC50. The gist of the method:
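NADH depletion at 340 nm monitored continuously for 6 h at 30° C, with rates taken over 4–5 h. The coupled pyruvate kinase/lactate dehydrogenase reaction used 1 mM ATP, 30.1 nM MEK substrate and 0.43 nM kinase at pH 7.5. IC50 was fitted sigmoidally from percent inhibition of serially diluted compound.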

Assay [2] deals with T2, B-Raf (V600E) kinase (Homo sapiens, UniProt P15056, V600E).
T2 construct: B-Raf (V600E) residues 416-766 with a; GST (N); purchased SignalChem
T2 sequence (P15056 416-766 V600E): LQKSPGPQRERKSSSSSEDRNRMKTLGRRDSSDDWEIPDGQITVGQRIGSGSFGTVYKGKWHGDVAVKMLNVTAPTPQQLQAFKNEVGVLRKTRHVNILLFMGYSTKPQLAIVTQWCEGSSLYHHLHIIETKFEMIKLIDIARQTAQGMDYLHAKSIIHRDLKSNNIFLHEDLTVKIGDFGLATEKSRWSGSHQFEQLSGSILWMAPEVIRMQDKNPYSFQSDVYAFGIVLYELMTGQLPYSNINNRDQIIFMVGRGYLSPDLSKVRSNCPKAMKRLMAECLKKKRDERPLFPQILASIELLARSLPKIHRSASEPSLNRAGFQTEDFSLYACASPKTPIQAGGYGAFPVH
The assay is described as follows: Biochemical assay for B-Raf (V600E).1 (coupled pyruvate kinase/lactate dehydrogenase). To be noted: read-out: BRAF V600E.1 IC50. The essentials:
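IC50 came from four-parameter sigmoidal fits of percent inhibition, using reaction rates over 3-4 h. Continuous A340 reading (6 h, 30 °C) of a pyruvate kinase/lactate dehydrogenase-coupled reaction: B-Raf V600E 0.03 nM, MEK 30.1 nM, ATP 1 mM, Tris pH 7.5, 1% DMSO.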

Assay [3] has as its system H2405 cells. The assay is described as follows: H2405 cell proliferation assay (1), resazurin, 96-well. It counts as cell-based. To be noted: Homo sapiens, NCI-H2405, inhibition of cell proliferation. The essentials: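 This is a resazurin viability readout (excitation 540 nm, emission 600 nm) taken 5-6 h after adding 440 μM resazurin solution, giving IC50 values.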
Assay [4] has as its target T3, A-Raf kinase (Homo sapiens, UniProt P10398, Y301D/Y302D).
T3 construct: purchased Sigma
The assay is described as follows: Biochemical assay for A-Raf.1 (coupled pyruvate kinase/lactate dehydrogenase). To be noted: read-out: ARAF.1 IC50. The essentials:
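IC50 values came from four-parameter sigmoidal fits of percent inhibition, using rates over the 4 to 5 h window of continuous A340 readings (6 h, 30° C). The coupled PK/LDH system tracked NADH oxidation during 5.55 nM A-Raf activity on 30.1 nM MEK at 1 mM ATP, buffer pH 7.5.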

T1 sequence (P04049 307-648 Y340D/Y341D): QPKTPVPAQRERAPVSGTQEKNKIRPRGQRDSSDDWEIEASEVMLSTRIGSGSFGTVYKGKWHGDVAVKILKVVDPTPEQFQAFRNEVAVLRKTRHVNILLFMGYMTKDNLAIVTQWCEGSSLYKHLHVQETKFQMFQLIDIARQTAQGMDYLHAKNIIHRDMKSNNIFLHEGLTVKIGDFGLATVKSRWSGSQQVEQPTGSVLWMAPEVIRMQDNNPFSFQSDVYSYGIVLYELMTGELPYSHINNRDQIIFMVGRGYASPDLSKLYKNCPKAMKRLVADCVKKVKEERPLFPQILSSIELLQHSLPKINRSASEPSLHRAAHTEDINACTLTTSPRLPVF
T3 sequence (P10398 with tags, fused parts or gaps Y301D/Y302D): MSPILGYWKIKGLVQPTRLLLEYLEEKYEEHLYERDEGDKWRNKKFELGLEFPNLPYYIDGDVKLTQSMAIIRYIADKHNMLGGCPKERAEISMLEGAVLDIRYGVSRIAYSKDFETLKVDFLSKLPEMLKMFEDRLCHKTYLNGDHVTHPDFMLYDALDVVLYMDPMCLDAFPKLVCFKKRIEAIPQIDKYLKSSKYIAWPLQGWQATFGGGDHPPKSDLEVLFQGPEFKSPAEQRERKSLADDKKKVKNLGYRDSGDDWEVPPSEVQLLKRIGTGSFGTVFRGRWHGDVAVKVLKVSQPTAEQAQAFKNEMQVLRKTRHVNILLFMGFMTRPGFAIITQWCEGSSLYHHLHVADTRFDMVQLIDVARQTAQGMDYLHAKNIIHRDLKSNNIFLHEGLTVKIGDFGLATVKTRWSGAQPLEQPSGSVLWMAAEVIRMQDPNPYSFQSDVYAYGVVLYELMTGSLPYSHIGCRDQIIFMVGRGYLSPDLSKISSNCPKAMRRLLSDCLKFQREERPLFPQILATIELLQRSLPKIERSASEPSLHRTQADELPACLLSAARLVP

Regarding `Cc1ccc(NC(=O)N2CC[C@H](C(F)(F)F)C2)cc1-c1cncc(-c2ccnc(NC(=O)C3CC3)c2)c1` [Example 197], the IC50 in assay [1] was ≤ 100 nM; in assay [2] it was ≤ 100 nM; in assay [3], 100 to 500 nM; in assay [4], 500 to 1000 nM.

`Cc1ccc(NC(=O)N2CCC(C(F)(F)F)C2)cc1-c1cccc(-c2cc(NC(=O)C3CC3)ncn2)c1` (stereo not drawn) [Example 73]: the IC50 was ≤ 100 nM in assay [1], ≤ 100 nM in assay [2], 100 to 500 nM in assay [3] and 500 to 1000 nM in assay [4].

For `Cc1ccc(NC(=O)N2CC[C@@H](C)C2)cc1-c1cncc(-c2cc(NC(=O)C3CC3)ncn2)c1` [Example 219], the IC50 in assay [1] was ≤ 100 nM; in assay [2] it was 100 to 500 nM; in assay [3], 100 to 500 nM; in assay [4], > 1000 nM.

On to `COC(C)(C)CCNC(=O)Nc1cc(-c2nccc(-c3ccnc(NC(=O)C4CC4)c3)n2)c(C)cc1F` [Example 83], for which the IC50 is ≤ 100 nM in assay [1], ≤ 100 nM in assay [2], 100 to 500 nM in assay [3] and 500 to 1000 nM in assay [4].

In the case of `Cc1cc(F)c(NC(=O)NCCC(C)(C)C#N)cc1-c1cc(N2CCOCC2)nc(N2CCOCC2)c1` [Example 22], the IC50 is ≤ 100 nM in assay [1], ≤ 100 nM in assay [2], 1000 to 10000 nM in assay [3] and > 1000 nM in assay [4].

`COC[C@@H]1CCN(C(=O)Nc2cnc(C)c(-c3ccnc(-c4ccnc(NC(=O)OC)c4)c3)c2)C1` [Example 179]: the IC50 was 100 to 500 nM in assay [1], ≤ 100 nM in assay [2], 1000 to 10000 nM in assay [3] and > 1000 nM in assay [4].

In the case of `CNC(=O)c1cc(-c2cnnc(-c3cc(NC(=O)N4CC[C@@H](OC)C4)ccc3C)c2)ccn1` [Example 181], the IC50 in assay [1] was > 1000 nM; in assay [2], 100 to 500 nM; in assay [3] it was 1000 to 10000 nM; in assay [4], > 1000 nM.

Consider `CNC(=O)c1cc(-c2cnnc(-c3cc(NC(=O)N4CCC(C(C)(C)C)C4)ccc3C)c2)ccn1` (stereo not drawn) [Example 180], for which the IC50 in assay [1] was 100 to 500 nM; in assay [2], ≤ 100 nM; in assay [3], 1000 to 10000 nM; in assay [4], > 1000 nM.

With `Cc1ccc(NC(=O)N2CC[C@@H](C(F)(F)F)C2)cc1-c1cncc(-c2cc(NC(=O)C3CC3)ncn2)c1` [Example 210], the IC50 in assay [1] was ≤ 100 nM; in assay [2], ≤ 100 nM; in assay [3] it was 100 to 500 nM; in assay [4], 500 to 1000 nM.

`COC(=O)Nc1cc(-c2cncc(-c3cc(NC(=O)N4CCCCC4)ccc3C)c2)ccn1` [Example 208]: the IC50 in assay [1] was 100 to 500 nM; in assay [2], > 1000 nM; in assay [3] it was 500 to 1000 nM; in assay [4] it was > 1000 nM.

Regarding `Cc1cc(F)c(NC(=O)NCCC2(C)CC2)cc1-c1cc(OCCO)nc(-c2ccnc(NC(=O)C3CC3)c2)c1` [Example 76], the IC50 is ≤ 100 nM in assay [1], ≤ 100 nM in assay [2], ≤ 100 nM in assay [3] and 100 to 500 nM in assay [4].

Turning to `Cc1cc(F)c(NC(=O)NCCC2(C(F)(F)F)CC2)cc1-c1cc(N2CCOCC2)nc(N2CCOCC2)c1` [Example 23], the IC50 in assay [1] was ≤ 100 nM; in assay [2] it was ≤ 100 nM; in assay [3], 100 to 500 nM; in assay [4], > 1000 nM.

For the molecule `COC(=O)Nc1cc(-c2cnnc(-c3cc(NC(=O)N4CCC(C(C)(C)C)C4)ccc3C)c2)ccn1` (stereo not drawn) [Example 185], the IC50 in assay [1] was ≤ 100 nM; in assay [2], ≤ 100 nM; in assay [3], 100 to 500 nM; in assay [4] it was > 1000 nM.

Take `Cc1cc(F)c(NC(=O)N2CC[C@H](C(F)(F)F)C2)cc1-c1cncc(-c2cc(NC(=O)C3CC3)ncn2)c1` [Example 216]: the IC50 in assay [1] was ≤ 100 nM; in assay [2], ≤ 100 nM; in assay [3], 100 to 500 nM; in assay [4], 100 to 500 nM.

For the molecule `COC(=O)Nc1cc(-c2cc(-c3cc(NC(=O)NCCC4(C)CC4)c(F)cc3F)cc(OCCO)n2)ccn1` [Example 188], the IC50 in assay [1] is ≤ 100 nM; in assay [2] it was ≤ 100 nM; in assay [3], 500 to 1000 nM; in assay [4], > 1000 nM.

On to `Cc1ccc(NC(=O)Nc2cnc(C(F)(F)F)s2)cc1-c1cc(OCCO)nc(N2CCOCC2)c1` [Example 43], for which the IC50 in assay [1] was ≤ 100 nM; in assay [2], ≤ 100 nM; in assay [3], 100 to 500 nM; in assay [4], > 1000 nM.

For `COC(=O)Nc1cc(-c2cncc(-c3cc(NC(=O)N4CCCC4)ccc3C)c2)ccn1` [Example 213], the IC50 in assay [1] is 500 to 1000 nM; in assay [2], 500 to 1000 nM; in assay [3], 1000 to 10000 nM; in assay [4] it was > 1000 nM.

On to `Cc1ccc(NC(=O)Nc2cn(C)nc2C(F)(F)F)cc1-c1cc(OCCO)nc(N2CCOCC2)c1` [Example 42], for which the IC50 is > 1000 nM in assay [1], ≤ 100 nM in assay [2], 1000 to 10000 nM in assay [3] and > 1000 nM in assay [4].

As to `CC(=O)Nc1cc(-c2cc(-c3cc(NC(=O)NCCC4(C)CC4)c(F)cc3C)cc(NCCO)n2)ccn1` [Example 175], the IC50 in assay [1] is ≤ 100 nM; in assay [2], ≤ 100 nM; in assay [3], ≤ 100 nM; in assay [4] it was 100 to 500 nM.

Consider `Cc1ncc(NC(=O)NCCC2(C)CC2)cc1-c1nccc(-c2ccnc(NC(=O)C3CC3)c2)n1` [Example 81], for which the IC50 was ≤ 100 nM in assay [1], ≤ 100 nM in assay [2], 100 to 500 nM in assay [3] and > 1000 nM in assay [4].

Take `COC1(CCNC(=O)Nc2cnc(C)c(-c3cccc(-c4cc(NC(=O)C5CC5)ncn4)c3)c2)CC1` [Example 84]: the IC50 in assay [1] was ≤ 100 nM; in assay [2], ≤ 100 nM; in assay [3], 1000 to 10000 nM; in assay [4], > 1000 nM.

Consider `COC(C)(C)CCNC(=O)Nc1cc(-c2cnnc(-c3ccnc(NC(=O)C4CC4)c3)c2)c(C)cc1F` [Example 173], for which the IC50 is ≤ 100 nM in assay [1], ≤ 100 nM in assay [2], 100 to 500 nM in assay [3] and > 1000 nM in assay [4].

Regarding `Cc1cc(F)c(NC(=O)NCCC2(C(F)(F)F)CC2)cc1-c1cc(OCCO)nc(C2CCOCC2)c1` [Example 24], the IC50 was ≤ 100 nM in assay [1], ≤ 100 nM in assay [2], 100 to 500 nM in assay [3] and > 1000 nM in assay [4].

For the molecule `CNC(=O)c1cc(-c2cnnc(-c3cc(NC(=O)N4CCC(C(C)(C)C)C4)cnc3C)c2)ccn1` (stereo not drawn) [Example 184], the IC50 in assay [1] was 500 to 1000 nM; in assay [2] it was ≤ 100 nM; in assay [3] it was 1000 to 10000 nM; in assay [4], > 1000 nM.

`Cc1cc(F)c(NC(=O)NCCC(C)(C)C#N)cc1-c1cccc(-c2ccnc(NC(=O)C3CC3)c2)c1` [Example 66]: the IC50 is ≤ 100 nM in assay [1], ≤ 100 nM in assay [2], 1000 to 10000 nM in assay [3] and > 1000 nM in assay [4].

Regarding `CNC(=O)c1cc(-c2cncc(-c3cc(NC(=O)N4CC[C@H](C(F)(F)F)C4)c(F)cc3C)c2)ccn1` [Example 214], the IC50 in assay [1] is 100 to 500 nM; in assay [2], 100 to 500 nM; in assay [3], 100 to 500 nM; in assay [4] it was > 1000 nM.

Turning to `Cc1ccc(NC(=O)N2CC[C@H](C(F)(F)F)C2)cc1-c1cccc(-c2cc(NC(=O)C3CC3)ncn2)c1` [Example 200], the IC50 in assay [1] is ≤ 100 nM; in assay [2], ≤ 100 nM; in assay [3], 100 to 500 nM; in assay [4], > 1000 nM.
